Results: PubChem BioAssay AID2060493 (Molecular Pharmacology Branch, DTP, NCI, 2025)
Values joined by “and” are separate entries in the source; they are usually repeats but may differ in a detail not shown here. Equal entries are not always repeated.

System: 616215-338-R-J1-PDC tumor spheroids, viability
Assay: Anticancer human tumor 616215-338-R-J1-PDC patient-derived colon adenocarcinoma cell line growth inhibition [GQUAD]
Settings: spheroids with HUVEC and MSC; for viability, T/C: stronger effect = lower value
Source text: DNA G-quadruplex Stabilizer Agents in Combinations in Complex Spheroids
A high-throughput screen of multi-cell type tumor spheroids was designed to identify active combinations of DNA G-quadruplex stabilizer agents and targeted small molecules. Complex spheroids include a stromal component modeled by human endothelial cells (HUVEC) and fibroblasts modeled by human mesenchymal stem cells (MSCs). The concentration ranges selected for each drug and investigational agent were based upon clinically achievable concentrations if the clinical Cmax of the agent was known.
Compounds. The drugs and investigational agents: pidnarulex (CX-5461; NSC782164), APTO-253 (NSC789042), BRACO-19 (NSC847499), peposertib (NSC802822), ceralasertib (NSC780249), elimusertib (NSC800525), camonsertib (NSC841442), AZD-1390 (NSC803789), olaparib (NSC753686), talazoparib (NSC767125), ART-558 (NSC835418), sotorasib (NSC818433), MRTX-1133 (NSC836407), SN-38 (NSC673596), topotecan (NSC609699), etoposide (NSC141540), doxorubicin (NSC123127), gemcitabine (NSC613327), 5-fluorouracil (NSC19893), paclitaxel (NSC125973), vemurafenib (NSC761431), panobinostat (NSC761190), R-306465 (JNJ-16241199; NSC773264), adavosertib (NSC754352), TP-3654 (NSC805149), carboplatin (NSC241240), KSQ-4279 (NSC840948), and staurosporine (NSC755774) were obtained from the National Cancer Institute (NCI) Developmental Therapeutics Program Chemical Repository (34). The FDA-approved anticancer drug set is available from the NCI Developmental Therapeutics Program. […] The stock solutions were prepared in dimethyl sulfoxide (DMSO, Sigma-Aldrich, St. Louis, MO, cat. D2650) at 800-fold the tested concentration and stored at -70 degrees C prior to their use. All drugs and investigational agents were tested over a range starting from a high concentration at or near the clinical Cmax and decreasing in half-log increments. If the clinical Cmax for an agent had not been determined, the highest concentration tested was 10 microM.
2.3 Cell Culture. All cells were maintained in an incubator at 37 degrees C and 5% CO2 with 95% humidity. The PDC lines were cultured according to standard operating procedures established by the NCI PDMR. All PDCs were thawed and cultured in Matrigel-coated flasks prepared with a working solution of 1X Ham's F-12 nutrient mix, without supplementation (Invitrogen, cat. 11765054), 100 U/mL penicillin-streptomycin (Invitrogen, cat. 15140122), and 2.5% Matrigel (Corning Inc., cat. 354248) for the first three passages. The 857933-349-R-J2-PDC line was cultured in 6C/Colon 1B media, which includes advanced DMEM/F-12 (Thermo Fisher Scientific, cat. 12634028), 10 mM HEPES (Thermo Fisher Scientific, cat. 15630080), 1X GlutaMAX supplement (Thermo Fisher Scientific, cat. 35050061), 0.1 mg/mL primocin (InvivoGen, cat. ant-pm-2), 10% defined fetal bovine serum, heat inactivated (HyClone Laboratories Inc., cat. SH30070.03HI), 50% L-WRN conditioned media (ATCC, cat. CRL-3276), 1.25 mM N-Acetyl-L-cysteine (Sigma-Aldrich, cat. A9165), 10 mM nicotinamide (Sigma-Aldrich, cat. N0636), 1X B-27 supplement (Thermo Fisher Scientific, cat. 17504044), 1X N-2 supplement (Thermo Fisher Scientific, cat. 17502048), 10 microM Y-27632 dihydrochloride (Tocris Bioscience, cat. 1254), and 50 ng/mL human EGF recombinant protein (Thermo Fisher Scientific, cat. PHG0311). The 485176-168-R4-J1-PDC line was cultured in Panc media, which includes all 6C/Colon 1B media components plus 100 ng/mL human FGF-10 (Thermo Fisher Scientific, cat. 100-26), 500 nM SB-431542 (Selleckchem, cat. S1067), and gastrin (Tocris, cat. 3006).
[…]
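Also: spheroids exposed to agents for 7 days before readout.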
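For viability, T/C in this document: percent viability relative to DMSO vehicle control wells taken as 100%.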

For `C#Cc1c(F)ccc2cc(O)cc(-c3ncc4c(N5CC6CCC(C5)N6)nc(OCC56CCCN5CC(F)C6)nc4c3F)c12` (stereo unspecified), the viability, T/C (compound 0.0316 µM) was 100% and 113% and 106%, the viability, T/C (compound 0.1 µM) was 90.1% and 98.3% and 110% and the viability, T/C (compound 0.316 µM) was 102% and 104% and 110%. The viability, T/C (compound 1 µM) was 80.2% and 106% and 104%, the viability, T/C (compound 3.16 µM) was 68% and 106% and 91.7% and the viability, T/C (compound 10 µM) was 45.8% and 63.5% and 59.2%. The IC50 (curve of compound) was 8040 nM and > 10000 nM.
`C=CC(=O)N1CCN(c2nc(=O)n(-c3c(C)ccnc3C(C)C)c3nc(-c4c(O)cccc4F)c(F)cc23)C(C)C1` (stereo unspecified) was tested, and the viability, T/C (compound 0.0316 µM) was 104% and 97.8% and 91.6%, the viability, T/C (compound 0.1 µM) was 90.8% and 91.2% and 98.1% and the viability, T/C (compound 0.316 µM) was 90.4% and 93.1% and 102%. For the same compound, the viability, T/C (compound 1 µM) was 94.2% and 93.5% and 95.7%, the viability, T/C (compound 3.16 µM) was 91.2% and 93.4% and 92.8% and the viability, T/C (compound 10 µM) was 68.1% and 71.2% and 75.3%. For the same compound, the IC50 (curve of compound) was greater than 10000 nM.
In the case of `C=CCn1c(=O)c2cnc(Nc3ccc(N4CCN(C)CC4)cc3)nc2n1-c1cccc(C(C)(C)O)n1`, the viability, T/C (compound 0.0316 µM) is reported as 106% and 108% and 101%, the viability, T/C (compound 0.1 µM) is reported as 94.6% and 98.4% and 92.7% and the viability, T/C (compound 0.316 µM) is reported as 53% and 53.7% and 76.8%. The viability, T/C (compound 1 µM) was 24.1% and 24.6% and 28.5%, the viability, T/C (compound 3.16 µM) was 13.3% and 13.7% and 23.5% and the viability, T/C (compound 10 µM) was 12.5% and 12% and 23.2%. For the same compound, the IC50 (curve of compound) was 367 nM and 381 nM and 601 nM.
`CC(=O)O[C@H]1C(=O)[C@@]2(C)[C@H]([C@H](OC(=O)c3ccccc3)[C@]3(O)C[C@H](OC(=O)[C@H](O)[C@@H](NC(=O)c4ccccc4)c4ccccc4)C(C)=C1C3(C)C)[C@]1(OC(C)=O)CO[C@@H]1C[C@@H]2O` was tested, and the viability, T/C (compound 0.0316 µM) was 18.6% and 23.3% and 49.7%, the viability, T/C (compound 0.1 µM) was 15.1% and 16.7% and 22.2% and the viability, T/C (compound 0.316 µM) was 14.9% and 20% and 21.1%. For the same compound, the viability, T/C (compound 1 µM) was 18% and 14.6% and 17.4%, the viability, T/C (compound 3.16 µM) was 13.8% and 14.9% and 15.3% and the viability, T/C (compound 10 µM) was 13.3% and 15.2% and 14.8%. The IC50 (curve of compound) was less than 31.6 nM.
`CC(C)(O)C1CCC(Nc2ccc3ncc(-c4cccc(C(F)(F)F)c4)n3n2)CC1` (stereo unspecified) was tested, and the viability, T/C (compound 0.0316 µM) was 103% and 105% (2×), the viability, T/C (compound 0.1 µM) was 92.2% and 90.8% and 100% and the viability, T/C (compound 0.316 µM) was 108% and 95.6% and 93.2%. The viability, T/C (compound 1 µM) was 16.1% and 27.9% and 33.8%, the viability, T/C (compound 3.16 µM) was 0.52% and 1.27% and 3.2% and the viability, T/C (compound 10 µM) was 12.4% and 1.83% and 2.83%. The IC50 (curve of compound) was 631 nM and 686 nM and 729 nM.
`CC(C)n1c(=O)n(C)c2cnc3cc(F)c(-c4ccc(OCCCN5CCCCC5)nc4)cc3c21` was tested, and the viability, T/C (compound 0.0316 µM) was 107% and 104% and 97.4%, the viability, T/C (compound 0.1 µM) was 99% and 102% and 91.9% and the viability, T/C (compound 0.316 µM) was 106% and 98.5% and 96.9%. The viability, T/C (compound 1 µM) was 110% and 101% and 92.8%, the viability, T/C (compound 3.16 µM) was 106% and 110% and 105% and the viability, T/C (compound 10 µM) was 53% and 94.7% and 96.5%. The IC50 (curve of compound) was greater than 10000 nM.
With `CC1COCCN1c1cc(-c2ccnn2C)c2ccnc(-c3ccn[nH]3)c2n1` (stereo unspecified) the viability, T/C (compound 0.0316 µM) was 98.8% and 101% and 103%, the viability, T/C (compound 0.1 µM) was 51.8% and 57% and 69.5% and the viability, T/C (compound 0.316 µM) was 38.8% and 31.3% and 37%. The viability, T/C (compound 1 µM) was 29.2% and 23.1% and 26.1%, the viability, T/C (compound 3.16 µM) was 24.5% and 18.4% and 26.3% and the viability, T/C (compound 10 µM) was 27.6% and 18.9% and 17.4%. The IC50 (curve of compound) was 126 nM and 137 nM and 203 nM.
For `CC1COCCN1c1cc(C2(O)CC3CCC(C2)O3)c2cnn(-c3ccn[nH]3)c2n1` (stereo unspecified), the viability, T/C (compound 0.0316 µM) was 95.2% and 102% and 99.8%, the viability, T/C (compound 0.1 µM) was 60.7% and 60.2% and 55.6% and the viability, T/C (compound 0.316 µM) was 45.5% and 31.8% and 40.3%. The viability, T/C (compound 1 µM) was 34.9% and 39.4% and 31.6%, the viability, T/C (compound 3.16 µM) was 21.1% and 23.5% and 21.3% and the viability, T/C (compound 10 µM) was 23.2% and 16.9% and 12.9%. For the same compound, the IC50 (curve of compound) was 217 nM and 171 nM and 175 nM.
With `CC1COCCN1c1cc(C2(S(C)(=N)=O)CC2)nc(-c2ccnc3[nH]ccc23)n1` (stereo unspecified) the viability, T/C (compound 0.0316 µM) was 112% and 99% and 92.8%, the viability, T/C (compound 0.1 µM) was 102% and 101% and 90.8% and the viability, T/C (compound 0.316 µM) was 122% and 95% and 90%. For the same compound, the viability, T/C (compound 1 µM) was 94.4% and 94.6% and 92.2%, the viability, T/C (compound 3.16 µM) was 72.2% and 51.3% and 62.8% and the viability, T/C (compound 10 µM) was 36% and 28.3% and 34.5%. For the same compound, the IC50 (curve of compound) was 6340 nM and 3380 nM and 5330 nM.
In the case of `CCCS(=O)(=O)Nc1ccc(F)c(C(=O)c2c[nH]c3ncc(-c4ccc(Cl)cc4)cc23)c1F`, the viability, T/C (compound 0.0316 µM) is reported as 100% (2×) and 106%, the viability, T/C (compound 0.1 µM) is reported as 103% and 95.3% and 98.6% and the viability, T/C (compound 0.316 µM) is reported as 97.9% and 100% and 97.8%. For the same compound, the viability, T/C (compound 1 µM) was 97% and 88.9% and 91.9%, the viability, T/C (compound 3.16 µM) was 89.7% and 88.8% and 104% and the viability, T/C (compound 10 µM) was 3.68% and 3.75% and 6.39%. For the same compound, the IC50 (curve of compound) was 5380 nM and 5350 nM and 5840 nM.
In the case of `CC[C@@]1(O)C(=O)OCc2c1cc1n(c2=O)Cc2cc3c(CN(C)C)c(O)ccc3nc2-1`, the viability, T/C (compound 0.000999 µM) is reported as 106% and 109% and 103%, the viability, T/C (compound 0.00316 µM) is reported as 93.6% and 97% and 92.9% and the viability, T/C (compound 0.00999 µM) is reported as 92.7% and 99.7% and 101%. The viability, T/C (compound 0.0316 µM) was 92.8% and 96.2% and 101%, the viability, T/C (compound 0.0999 µM) was 97.8% and 89% and 91.2% and the viability, T/C (compound 0.316 µM) was 50.1% and 44.3% and 47.5%. For the same compound, the IC50 (curve of compound) was > 316 nM and 273 nM and 297 nM.
`CCc1c2c(nc3ccc(O)cc13)-c1cc3c(c(=O)n1C2)COC(=O)[C@]3(O)CC` was tested, and the viability, T/C (compound 0.000999 µM) was 93.6% and 102% (2×), the viability, T/C (compound 0.00316 µM) was 75.4% and 93.8% and 87.9% and the viability, T/C (compound 0.00999 µM) was 63.3% and 61.1% and 66.4%. For the same compound, the viability, T/C (compound 0.0316 µM) was 24.8% and 30.3% and 29.4%, the viability, T/C (compound 0.0999 µM) was 22% and 16.5% and 16.2% and the viability, T/C (compound 0.316 µM) was 14.9% and 9.21% and 12.4%. For the same compound, the IC50 (curve of compound) was 13.9 nM and 15.6 nM and 16.3 nM.
With `CN(C)c1ccc(Nc2c3ccc(NC(=O)CCN4CCCC4)cc3nc3cc(NC(=O)CCN4CCCC4)ccc23)cc1` the viability, T/C (compound 0.0316 µM) was 105% [middle of 12 runs], the viability, T/C (compound 0.1 µM) was 104% [middle of 12 runs] and the viability, T/C (compound 0.316 µM) was 102% [middle of 12 runs]. The viability, T/C (compound 1 µM) was 100% [middle of 12 runs], the viability, T/C (compound 3.16 µM) was 99.6% [middle of 12 runs] and the viability, T/C (compound 10 µM) was 93.9% [middle of 12 runs]. It also gave an IC50 (compound alone, run of 04/22/2024) greater than 10000 nM.
